This passage reports IC50 results from patent US12371436B2, “Substituted benzodiazoliums as ENaC inhibitors” (ENTERPRISE THERAPEUTICS LIMITED, priority 2016, dated 2025).

In this assay the target is T1, ENaC (Homo sapiens, UniProt P37088+P51168+P51170).
T1 construct: host or cells: primary human bronchial epithelial cells (HBECs) differentiated at air-liquid interface
T1 sequence (P37088 1-669): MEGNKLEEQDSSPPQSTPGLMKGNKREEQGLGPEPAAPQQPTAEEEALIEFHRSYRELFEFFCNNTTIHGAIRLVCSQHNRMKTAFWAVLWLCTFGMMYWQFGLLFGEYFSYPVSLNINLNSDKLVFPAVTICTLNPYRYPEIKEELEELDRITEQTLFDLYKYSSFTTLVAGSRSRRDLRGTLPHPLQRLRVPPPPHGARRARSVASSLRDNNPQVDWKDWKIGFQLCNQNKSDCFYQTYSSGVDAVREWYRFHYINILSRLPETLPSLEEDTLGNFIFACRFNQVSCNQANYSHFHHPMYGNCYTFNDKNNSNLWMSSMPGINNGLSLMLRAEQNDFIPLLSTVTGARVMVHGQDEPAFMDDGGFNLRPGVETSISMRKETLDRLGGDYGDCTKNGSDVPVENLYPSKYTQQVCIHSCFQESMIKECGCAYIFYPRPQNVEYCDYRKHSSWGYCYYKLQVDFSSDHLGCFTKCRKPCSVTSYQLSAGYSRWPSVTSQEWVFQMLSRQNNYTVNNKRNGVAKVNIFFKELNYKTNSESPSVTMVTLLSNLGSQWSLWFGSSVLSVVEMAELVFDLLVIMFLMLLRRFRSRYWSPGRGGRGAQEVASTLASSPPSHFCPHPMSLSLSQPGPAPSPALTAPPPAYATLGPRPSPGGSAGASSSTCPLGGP
T1 sequence (P51168 1-640): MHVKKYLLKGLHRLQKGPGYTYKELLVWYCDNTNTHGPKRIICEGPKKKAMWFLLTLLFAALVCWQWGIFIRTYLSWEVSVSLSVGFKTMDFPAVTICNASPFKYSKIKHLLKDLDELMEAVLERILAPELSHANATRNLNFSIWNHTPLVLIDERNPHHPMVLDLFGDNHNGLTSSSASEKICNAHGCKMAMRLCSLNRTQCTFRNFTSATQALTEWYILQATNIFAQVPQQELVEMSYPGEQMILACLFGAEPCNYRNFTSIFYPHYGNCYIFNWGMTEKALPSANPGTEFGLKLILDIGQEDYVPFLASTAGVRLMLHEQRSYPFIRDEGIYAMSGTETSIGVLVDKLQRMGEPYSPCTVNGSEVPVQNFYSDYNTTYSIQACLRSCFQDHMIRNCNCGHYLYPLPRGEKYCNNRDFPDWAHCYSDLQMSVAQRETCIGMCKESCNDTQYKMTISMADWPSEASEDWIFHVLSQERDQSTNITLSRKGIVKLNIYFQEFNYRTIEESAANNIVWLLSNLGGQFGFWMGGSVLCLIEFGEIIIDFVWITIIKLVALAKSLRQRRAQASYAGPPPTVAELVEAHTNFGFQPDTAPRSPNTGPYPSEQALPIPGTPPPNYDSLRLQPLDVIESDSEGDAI
T1 sequence (P51170 1-649): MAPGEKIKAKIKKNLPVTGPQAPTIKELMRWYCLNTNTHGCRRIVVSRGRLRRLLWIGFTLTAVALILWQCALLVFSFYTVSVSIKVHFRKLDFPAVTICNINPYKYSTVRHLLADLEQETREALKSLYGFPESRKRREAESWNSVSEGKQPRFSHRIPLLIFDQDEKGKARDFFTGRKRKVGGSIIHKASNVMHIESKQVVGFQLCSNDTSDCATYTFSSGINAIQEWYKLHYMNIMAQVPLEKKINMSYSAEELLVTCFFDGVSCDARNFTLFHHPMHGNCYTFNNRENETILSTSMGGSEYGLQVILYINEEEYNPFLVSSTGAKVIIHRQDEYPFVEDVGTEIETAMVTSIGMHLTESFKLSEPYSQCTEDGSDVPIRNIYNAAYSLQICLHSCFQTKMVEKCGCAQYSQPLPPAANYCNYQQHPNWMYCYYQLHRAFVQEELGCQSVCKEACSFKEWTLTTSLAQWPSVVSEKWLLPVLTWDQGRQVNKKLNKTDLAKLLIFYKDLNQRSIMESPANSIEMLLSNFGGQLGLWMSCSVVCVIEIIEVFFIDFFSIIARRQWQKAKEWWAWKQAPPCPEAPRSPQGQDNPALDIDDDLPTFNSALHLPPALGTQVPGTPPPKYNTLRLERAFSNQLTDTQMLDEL
The assay is described as follows: Short circuit current assay to determine ENaC blocker potency in human bronchial epithelial cells. The class given is cell-based. As to conditions: 50% inhibition of total amiloride-sensitive ISC, apical addition, read-out: Averages.ENaC IC50 (nM) Avg. The protocol:
Example 68—Short circuit current assay to determine ENaC blocker potency in human bronchial epithelial cells
Human bronchial epithelial cells (HBECs) (Lonza, UK) were cultured using a modification of the method described by Coote et al, (2008). Cells were seeded into plastic T-75 flasks and grown in Bronchial Epithelial Cell Growth Medium (BEGM) (Lonza, UK) supplemented with bovine pituitary extract (52 ng/mL), hydrocortisone (0.5 μg/mL), human recombinant Epidermal Growth Factor (0.5 ng/mL), epinephrine (0.5 ng/mL), transferrin (10 ng/mL), insulin (5 ng/mL), retinoic acid (0.1 ng/mL), triiodothyronine (6.5 ng/mL), gentamycin (50 μg/mL) and amphotericin-B (50 ng/mL). Medium was changed every 48 hours until cells were 90% confluent. Cells were then passaged and seeded (8.25×10^5 cells/insert) onto polycarbonate Snapwell™ inserts (Costar, UK) in differentiation media containing 50% DMEM in BGEM with the same supplements as above but without triiodothyronine and a final retinoic acid concentration of 50 nM (all-trans retinoic acid; Sigma-Aldrich, UK). Cells were maintained submerged for the first 7 days in culture after which time they were exposed to an apical air interface for the remainder of the culture period. From the first day of establishment of an ALI, HBEC were fed with a DMEM:HAMS F-12 (1:1) media containing 2% Ultroser G (Pall BioSepra, France) with gentamycin (50 μg/mL) and amphotericin B (50 ng/mL). Cells were used for short-circuit current assay between days 14-21 after the establishment of the ALI. At all stages of culture, cells were maintained at 37° C. in 5% CO2 in an air incubator.
Short-Circuit Current (ISC) Measurements
Snapwell inserts were mounted in Costar Vertical Diffusion Chambers (Costar, UK) and were bathed with continuously gassed Ringer solution (5% CO2 in O2; pH 7.4) maintained at 37° C. containing (in mM): 120 NaCl, 25 NaHCO3, 3.3 KH2PO4, 0.8 K2HPO4, 1.2 CaCl2, 1.2 MgCl2 and 10 glucose. The solution osmolarity was always between 280-300 mOsm/kg H2O for all physiological salt solutions used. Cells were voltage clamped to 0 mV (model EVC4000, WPI). Transepithelial resistance (RT) was measured by applying a 2 mV pulse at 30 s intervals and calculating RT by Ohm's law. Data were recorded using a PowerLab workstation (ADlnstruments, UK).
ENaC blocker compounds were added to the apical chamber from a 1000-fold stock solution (prepared in DMSO) to achieve a cumulative concentration response in terms of the inhibition of the basal ISC. At the completion of the concentration response, a supra-maximal concentration of amiloride (10 μM) was added. The concentration of test compound that induced a 50% inhibition of the total amiloride-sensitive ISC (IC50) was calculated using GraphPad Prism v6.05. The results are presented in Table 2, from which it can be seen that the compounds of the present invention have ENaC inhibiting activity.
With `CCn1c(CNC(=O)c2nc3cc[nH]c3nc2N)[n+](Cc2ccccc2)c2ccc(Cl)cc21` [Example 16, 2-[({3-amino-5H-pyrrolo[2,3-b]pyrazin-2-yl}formamido)methyl]-3-benzyl-6-chloro-1-ethyl-1H-1,3-benzodiazol-3-ium], the IC50 is 10 nM.

As to `CCn1c(CNC(=O)c2nc3cc[nH]c3nc2N)[n+](Cc2ccccc2)c2ccc(C(F)(F)F)cc21` [Example 17, 2-[({3-amino-5H-pyrrolo[2,3-b]pyrazin-2-yl}formamido)methyl]-3-benzyl-1-ethyl-6-(trifluoromethyl)-1H-1,3-benzodiazol-3-ium], the IC50 stood at 15 nM.

For the molecule `Nc1nc2[nH]ccc2nc1C(=O)NCc1n(CC(=O)N2CCCCC2)c2ccccc2[n+]1Cc1ccccc1` [Example 18, 2-[({3-amino-5H-pyrrolo[2,3-b]pyrazin-2-yl}formamido)methyl]-3-benzyl-1-[2-oxo-2-(piperidin-1-yl)ethyl]-1H-1,3-benzodiazol-3-ium], the IC50 stood at 5450 nM.

For the molecule `CCn1c(CNC(=O)c2nc3cc(C)[nH]c3nc2N)[n+](C)c2ccc(OC)cc21` [Example 19, 2-[({3-amino-6-methyl-5H-pyrrolo[2,3-b]pyrazin-2-yl}formamido)methyl]-1-ethyl-6-methoxy-3-methyl-1H-1,3-benzodiazol-3-ium], the IC50 was 8 nM.

For `CCn1c(CNC(=O)c2nc3c(C)c[nH]c3nc2N)[n+](CC)c2ccc(Cl)cc21` [Example 20, 2-[({3-amino-7-methyl-5H-pyrrolo[2,3-b]pyrazin-2-yl}formamido)methyl]-6-chloro-1,3-diethyl-1H-1,3-benzodiazol-3-ium], the IC50 was 4 nM.

With `CCn1c(CNC(=O)c2nc3c(Cl)c[nH]c3nc2N)[n+](CC)c2ccc(Cl)cc21` [Example 21, 2-[({3-amino-7-chloro-5H-pyrrolo[2,3-b]pyrazin-2-yl}formamido)methyl]-6-chloro-1,3-diethyl-1H-1,3-benzodiazol-3-ium], the IC50 was 2 nM.

As for `CCn1c(CNC(=O)c2nc3cc[nH]c3nc2N)[n+](CC)c2ccc(OCCNC(=O)OC(C)(C)C)cc21` [Example 22, 2-[({3-amino-5H-pyrrolo[2,3-b]pyrazin-2-yl}formamido)methyl]-6-(2-{[(tert-butoxy)carbonyl]amino}ethoxy)-1,3-diethyl-1H-1,3-benzodiazol-3-ium], the IC50 came to 8 nM.

Consider `CCn1c(CNC(=O)c2nc3cc[nH]c3nc2N)[n+](CC)c2ccc(OCCCNC(=O)OC(C)(C)C)cc21` [Example 23, 2-[({3-amino-5H-pyrrolo[2,3-b]pyrazin-2-yl}formamido)methyl]-6-(3-{[(tert-butoxy)carbonyl]amino}propoxy)-1,3-diethyl-1H-1,3-benzodiazol-3-ium], for which the IC50 was 4 nM.

With `CCn1c(CNC(=O)c2nc3cc[nH]c3nc2N)[n+](CC)c2ccc(CCCNC(=O)OC(C)(C)C)cc21` [Example 24, 2-[({3-amino-5H-pyrrolo[2,3-b]pyrazin-2-yl}formamido)methyl]-6-(3-{[(tert-butoxy)carbonyl]amino}propyl)-1,3-diethyl-1H-1,3-benzodiazol-3-ium], the IC50 was 6 nM.

Take `CCn1c(CNC(=O)c2nc3cc[nH]c3nc2N)[n+](CC)c2ccc(C3CCN(C(=O)OC(C)(C)C)CC3)cc21` [Example 25, 2-[({3-amino-5H-pyrrolo[2,3-b]pyrazin-2-yl}formamido)methyl]-6-{1-[(tert-butoxy)carbonyl]piperidin-4-yl}-1,3-diethyl-1H-1,3-benzodiazol-3-ium]: the IC50 was determined as 2 nM.

With `CCn1c(CNC(=O)c2nc3cc[nH]c3nc2N)[n+](CC)c2ccc(-c3cnn(C4CCN(C(=O)OC(C)(C)C)CC4)c3)cc21` [Example 26, 2-[({3-amino-5H-pyrrolo[2,3-b]pyrazin-2-yl}formamido)methyl]-6-(1-{1-[(tert-butoxy)carbonyl]piperidin-4-yl}-1H-pyrazol-4-yl)-1,3-diethyl-1H-1,3-benzodiazol-3-ium], the IC50 was 1 nM.

For `CCn1c(CNC(=O)c2nc3cc[nH]c3nc2N)[n+](CC)c2ccc(OCCN)cc21` [Example 27, 2-[({3-amino-5H-pyrrolo[2,3-b]pyrazin-2-yl}formamido)methyl]-6-(2-aminoethoxy)-1,3-diethyl-1H-1,3-benzodiazol-3-ium], the IC50 turned out to be 14 nM.

As to `CCn1c(CNC(=O)c2nc3cc[nH]c3nc2N)[n+](CC)c2ccc(OCCCN)cc21` [Example 28, 2-[({3-amino-5H-pyrrolo[2,3-b]pyrazin-2-yl}formamido)methyl]-6-(3-aminopropoxy)-1,3-diethyl-1H-1,3-benzodiazol-3-ium], the IC50 stood at 7 nM.

As to `CCn1c(CNC(=O)c2nc3cc[nH]c3nc2N)[n+](CC)c2ccc(CCCN)cc21` [Example 29, 2-[({3-amino-5H-pyrrolo[2,3-b]pyrazin-2-yl}formamido)methyl]-6-(3-aminopropyl)-1,3-diethyl-1H-1,3-benzodiazol-3-ium], the IC50 stood at 5 nM.

Turning to `CCn1c(CNC(=O)c2nc3cc[nH]c3nc2N)[n+](CC)c2ccc(C3CCNCC3)cc21` [Example 30, 2-[({3-amino-5H-pyrrolo[2,3-b]pyrazin-2-yl}formamido)methyl]-1,3-diethyl-6-(piperidin-4-yl)-1H-1,3-benzodiazol-3-ium], the IC50 was determined as 6 nM.

The IC50 is the midpoint of a concentration-inhibition curve.
